The values below come from patent publication US20190382827A1, “USE OF MICROBIAL METABOLITES FOR TREATING DISEASES” (Yeda Research and Development Co. Ltd., priority 2015, published 2019).

Series [1] deals with T1, colonic NLRP6 inflammasome (Mus musculus, UniProt Q91WS2).
T1 construct: in colon tissue obtained from WT mice drinking taurine for 14 days; from tissue; host or cells: colon of living WT mice (SPF for A4; germ-free for A5)
T1 sequence (Q91WS2 1-869): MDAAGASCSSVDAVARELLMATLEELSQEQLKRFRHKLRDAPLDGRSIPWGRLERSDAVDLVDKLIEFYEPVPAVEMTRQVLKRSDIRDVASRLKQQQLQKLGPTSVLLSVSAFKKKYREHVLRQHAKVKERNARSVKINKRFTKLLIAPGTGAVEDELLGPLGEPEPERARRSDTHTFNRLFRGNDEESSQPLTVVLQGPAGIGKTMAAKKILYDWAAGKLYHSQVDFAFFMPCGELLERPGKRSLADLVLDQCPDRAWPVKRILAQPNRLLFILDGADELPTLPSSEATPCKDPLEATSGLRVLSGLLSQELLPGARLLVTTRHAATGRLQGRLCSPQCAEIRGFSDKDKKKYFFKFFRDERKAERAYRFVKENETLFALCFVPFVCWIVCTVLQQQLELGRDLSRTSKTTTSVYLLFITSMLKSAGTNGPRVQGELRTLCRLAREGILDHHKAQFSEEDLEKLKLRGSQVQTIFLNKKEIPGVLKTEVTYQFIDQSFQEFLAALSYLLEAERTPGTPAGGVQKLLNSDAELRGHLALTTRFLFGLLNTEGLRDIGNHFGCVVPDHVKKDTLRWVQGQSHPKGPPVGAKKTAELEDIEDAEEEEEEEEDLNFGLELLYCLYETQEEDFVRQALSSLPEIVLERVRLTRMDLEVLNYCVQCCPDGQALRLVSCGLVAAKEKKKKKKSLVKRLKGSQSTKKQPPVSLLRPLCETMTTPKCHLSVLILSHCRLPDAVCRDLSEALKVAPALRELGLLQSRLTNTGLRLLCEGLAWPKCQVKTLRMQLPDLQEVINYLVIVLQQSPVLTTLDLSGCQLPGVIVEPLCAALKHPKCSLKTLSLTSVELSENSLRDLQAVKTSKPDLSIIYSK
In words: Metabolites in the drinking water of mice, colonic inflammasome readouts. Particulars: for colonic lamina propria hematopoietic cell populations: WT mice drinking for 14 days, FACS; for colonic caspase-1 activation (activated caspase-1 levels): WT mice, drinking water for 14 days. The class given is in vivo. The text has this: (A, B) Immunoblot analysis (A) and quantification (B) of pro-caspase-1 (p45) and cleaved caspase-1 (p20) in colon tissue obtained from WT mice drinking taurine for 14 days.
(C) IL-18 production by colon explants obtained from WT mice drinking taurine for 14 days.
(D) Ang4 expression in sorted epithelial cells (CD45^−EpCAM^+) obtained from WT mice drinking taurine for 14 days.
(I) IL-18 production by colon explants from WT, Asc^−/− or Nlrp6^−/− mice drinking taurine for 14 days.
(J, K) Immunoblot analysis (J) and quantification (K) of pro-caspase-1 (p45) and cleaved caspase-1 (p20) in colon tissue obtained from WT mice drinking histamine with or without spermine for 14 days.
Colons were excised and washed thoroughly with PBS, homogenized in RIPA buffer containing protease inhibitors, incubated for 20 min in 4° C. and centrifuged for 20 min, 14,000 rpm at 4° C. Samples were separated on 15% acrylamide gels and transferred onto nitrocellulose membranes. Western blot analysis was performed using anti-caspase 1 p20 polyclonal antibody (Adipogen, AG-20B-0042B-C100) and Goat anti mouse antibody (Jackson ImmunoResearch, 115-035-003). Band density was calculated using ImageJ software.
Concentrations of IL-18 in the serum or culture supernatants were measured using ELISA. Plates were coated over night with IL-18 (MBL, B004-2), incubated for 4 hours with supernatant or serum. Samples were then washed and plates were incubated with anti-mouse IL-18-biotin antibody (D048-6 MBL) for 1 hour and HRP-Avidin (BioLegend) for 1 hour before quantification.
Tissues were preserved in RNAlater solution (Ambion) and subsequently homogenized in Tri Reagent (Fox et al.). RNA was purified according to the manufacturer's instructions. Two microgram of total RNA was used to generate cDNA (HighCapacity cDNA Reverse Transcription kit; Applied Biosystems). RealTime-PCR was performed using gene-specific primer/probe sets (Applied Biosystems) and Kapa Probe Fast qPCR kit (Kapa Biosystems) on a Viia7 instrument (Applied Biosystems). PCR conditions were 95° C. for 20 s, followed by 40 cycles of 95° C. for 3 s and 60° C. for 30 s. Data were analyzed using the deltaCt method with hprt serving as the reference housekeeping gene.
To provide in-vivo validation to the above metabolite activities and to further characterize their effects on the host-microbiome interface, we administered taurine to mice in the drinking water. […] To test this notion directly, either LPS (a known ‘signal I’), taurine, or both were administered to GF WT mice. […] In contrast to taurine, in-vivo administration of histamine and spermine reduced the levels of activated caspase-1 (FIGS. 6J and 6K), while not altering the composition of hematopoietic cells in the lamina propria (FIG. 13D).

Another series concerns intestinal microbiota. Nature of the series: 16S analysis of microbiota of mice given metabolites in drinking water. The series is classed as in vivo, mouse. An excerpt:
Frozen fecal samples were processed for DNA isolation using the MoBio PowerSoil kit according to the manufacturer's instructions. For the 16S rRNA gene PCR amplification, ing of the purified fecal DNA was used for PCR amplification. Amplicons spanning the variable region 1/2 (V1/2) of the 16S rRNA gene were generated by using the following barcoded primers: Fwd 5′-XXXXXXXXAGAGTTTGATCCTGGCTCAG-3′ (SEQ ID NO: 1), Rev 5′-[…]-3′ (SEQ ID NO: 2), where X represents a barcode base. The reactions were subsequently pooled and cleaned (PCR clean kit, Promega), and the PCR products were then sequenced on an Illumina MiSeq in 500 bp paired-end method. The reads were then processed using the QIIME (Quantitative Insights Into Microbial Ecology, www(dot)qiime(dot)org) analysis pipeline as described (Caporaso et al., 2010; Elinav et al., 2011). In brief, fasta quality files and a mapping file indicating the barcode sequence corresponding to each sample were used as inputs, reads were split by samples according to the barcode, taxonomical classification was performed using the RDP-classifier, and an OTU table was created. Closed-reference OTU mapping was employed using the Greengenes database. Rarefaction was used to exclude samples with insufficient count of reads per sample. Sequences sharing 97% nucleotide sequence identity in the V2 region were binned into operational taxonomic units (97% ID OTUs). For beta-diversity, weighted unifrac measurements were plotted according to the two principal coordinates based on 1,000 reads per sample. The OTU tables used for our analyses are made accessible online.

In another series the test system is colon explants. The class given is cell-based, mouse. The method, then: (F) FACS quantification of propidium iodide positive cells obtained from colon explants incubated for 10 hrs with PBS or taurine.
(F) FACS quantification of propidium iodide positive cells obtained from colon explants incubated for 10 hrs with either PBS, spermine or histamine.

In the case of `NCCc1c[nH]cn1` [histamine], in series [1], the “colonic lamina propria hematopoietic cell populations” value was “not altering” and the “colonic caspase-1 activation (activated caspase-1 levels)” value (“colonic caspase-1 activation” below) was “reduced”. For the same compound, in the series on intestinal microbiota (WT mice), the “composition of the intestinal microbiota” value is given as “induced compositional changes”. In addition, the cell death result in the series on colon explants is given as “no change”.

Regarding `NCCCNCCCCNCCCN` [spermine], in series [1], the “colonic lamina propria hematopoietic cell populations” value was “not altering” and the “colonic caspase-1 activation” value was “reduced”. The “composition of the intestinal microbiota” value with intestinal microbiota (WT mice) is listed as “induced compositional changes”. The cell death entry in the series on colon explants is reported as “no change”.

Turning to `NCCS(=O)(=O)O` [taurine], in series [1] (Asc-/- or Nlrp6-/- mice drinking taurine for 14 days), the IL-18 induction entry was “no IL-18 induction”. Moreover, in series [1], the “colonic lamina propria hematopoietic cell populations” value is reported as “not accompanied by alterations” and the “colonic caspase-1 activation” value is “marked activation”. Moreover, in series [1] (colon explants from WT mice drinking for 14 days), the IL-18 secretion entry is “marked activation”. For the same compound, the “IL-18 mRNA levels” value in series [1] (colon of WT mice drinking for 14 days) is reported as “not affecting”. The “epithelial Ang4 production” value in series [1] (sorted epithelial cells from WT mice drinking for 14 days) is “marked activation”. The “composition of the intestinal microbiota” value with intestinal microbiota (Asc-/- or Nlrp6-/- mice) is “did not occur”. The “composition of the intestinal microbiota” value in the series on intestinal microbiota (WT mice) is on record as “induced compositional changes”.
